Where “and” joins values, the source holds several entries; their conditions need not be identical. Equal entries are not always repeated.

Common to all, as to assay type: physicochemical
The nature of data set [1]: Analysis of amorphous material (hygroscopicity note at elemental analysis). To be noted: observed at elemental analysis.
Data set [2] can be described thus: Solubility of the amorphate in solvents.
A short description of data set [3]: Moisture sorption by DVS moisture balance. The settings on record: for Desorption / Sorption (moisture gain) / Hysteresis Cycle 1: 25° C. An excerpt: The crystalline 2-amino-7-(ethanimidoylamino)-2-methylhept-5-enoic acid 1.5 HCl is nonhygroscopic at and below 70% relative humidity. […] At 80% R.H. the gain was 18.5%, and at 90% R.H. the gain was 76.8%. The instrument cycled back to low relative humidity and the sample was removed then examined by polarized light microscopy. The sample was fully crystalline after removal from the moisture balance, but the crystallite size had increased. […] This salt form, 1.5 HCl has no solvation.

As to `CC(=N)NC/C=C\CCC(C)(N)C(=O)O` (stereo in doubt) [(2S,5Z)-2-amino-7-(ethanimidoylamino)-2-methylhept-5-enoic acid], the hygroscopicity entry in data set [1] was “(Note: Material appears to be hygroscopic - elemental”. The solubility result was “less than one” in data set [2] (dry solvents: acetone, MEK, methyl isobutyl ketone, THF, ethyl acetate, chloroform, methylene chloride, hexanes, cyclohexane, di-isopropyl ether, acetonitrile, toluene); “soluble” in data set [2] (in isopropanol and solvents containing water: 10% water in THF, water saturated ethyl acetate, 10% water in acetonitrile, higher alcohols with water); “freely soluble” in data set [2] (in water, methanol and ethanol).

Consider `CC(=N)NC/C=C\CC[C@](C)(N)C(=O)O.CC(=N)NC/C=C\CC[C@](C)(N)C(=O)O.Cl.Cl.Cl` [(2S,5Z)-2-amino-7-(ethanimidoylamino)-2-methylhept-5-enoic acid 1.5 HCl], for which the Desorption worked out at 13.02% in data set [3] (target RH 0.0%); 18.93% in data set [3] (target RH 20.0%); 22.72% in data set [3] (target RH 40.0%); 33.44% in data set [3] (target RH 60.0%); 67.59% in data set [3] (target RH 80.0%); 76.82% in data set [3] (target RH 90.0%). Further, the “Sorption (moisture gain)” value was determined as 0.00% in data set [3] (target RH 0.0%); 0.10% in data set [3] (target RH 10.0%); 0.16% in data set [3] (target RH 20.0%); 0.21% in data set [3] (target RH 30.0%); 0.26% in data set [3] (target RH 40.0%); 0.28% in data set [3] (target RH 50.0%). The “Sorption (moisture gain)” value is 0.27% in data set [3] (target RH 60.0%); 0.91% in data set [3] (target RH 70.0%); 18.5% and 18.48% in data set [3] (target RH 80.0%, HCl); 46.91% in data set [3] (target RH 85.0%); 76.8% and 76.82% in data set [3] (target RH 90.0%, HCl). Besides, the “Hysteresis Cycle 1” value in data set [3] (target RH 20.0%) worked out at 18.77%; in data set [3] (target RH 40.0%) it was 22.46%; in data set [3] (target RH 60.0%), 33.16%; in data set [3] (target RH 80.0%), 49.10%. For the same compound, the hygroscopicity entry in data set [3] (at and below 70% relative humidity) was “nonhygroscopic”.

The values are drawn from US6998503B2, “Crystalline solid form of (2S,5Z)-2-amino-7-(ethanimidoylamino)-2-methylhept-5-enoic acid” (Pharmacia Corporation, priority 2002, dated 2006).
